Values joined by “and” are separate entries in the source; they are usually repeats but may differ in a detail not shown here. Equal values may be shown once. Read-outs that look alike come from different tables or passages of the source.
How the values were obtained:
[1] = target: T1, recombinant human AMPK (α1β2γ1) (Homo sapiens, UniProt Q13131); test: ATP competition kinase assay; type: biochemical
T1 construct: purchased Promega
Description: ATP competition kinase assays were performed by the MRC Protein Phosphorylation and Ubiquitination Unit International Centre for Kinase Profiling (University of Dundee). Inhibition of recombinant human AMPK (α1β2γ1) by 10μM [L2Cu3]^6+ or [L2Zn3]^6+ was evaluated at five different ATP concentrations (0.5, 2, 20, 200 and 500 µM ATP). Substrate competition assays were performed using the ADP-Glo Kinase Assay (Promega) and recombinant human AMPK (α1β2γ1) (Promega) with concentrations of the provided AMPK substrate (SAMStide substrate, Promega) ranging from 1 to 15 mg/ml. Following pre-incubation of substrate with kinase for 5 min 10 µM [L2Cu3]^6+, [L2Zn3]^6+ or solvent control and 50 µM ATP was added to start the kinase reaction. For determination of the effects of AMP on AMPK inhibition by [L2Zn3]^6+, the ADP-Glo Kinase Assay (Promega) was performed in presence of varying of AMP (0, 80, 160 μM).

[2] = test system: GBM1 glioblastoma cancer stem cell model; test: Chemosensitivity, 96 h continuous exposure, MTT assay; type: cell-based, human; conditions: for IC50: GBM1, 96 h, MTT; for Selectivity Index using the NPI non-cancer cell line: IC50 NP1 / IC50 GBM1; for SI (ARPE19): mean IC50 ARPE-19 / mean IC50 GBM1; for SI (MCF10A): mean IC50 MCF10A / mean IC50 GBM1; for SI (NPI): mean IC50 NP1 / mean IC50 GBM1;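 for SI (NPI): adult human brain neural progenitor non-cancer cells from an epilepsy surgery patient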;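 for Selectivity Index using the NPI non-cancer cell line: adult human brain neural progenitor non-cancer cells from an epilepsy surgery patient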
Outline: (§1)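 IC50 is the concentration giving 50% growth reduction, derived from dose-response curves of MTT absorbance at 540 nm. Before dosing, lines were plated at 2 × 10^3 cells/well, GBM1 stem-like cells at 3 × 10^3/well, overnight at 37 °C; compound exposure lasted 96 h without interruption, vehicle 0.2% DMSO.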

[3] = test system: NP1 adult brain neural progenitor cells; test: as above; type: cell-based, human
Outline: as §1

[4] = individual run, read-out: IC50 values for each replicate
[5] = mean of at least 3 independent experiments, read-out: Mean IC50
[6] = NP1, 96 h, MTT, individual run, read-out: IC50 values for each replicate
[7] = NP1, 96 h, MTT, mean of at least 3 independent experiments, read-out: Mean IC50
[8] = NP1 non-cancer, read-out: Mean IC50 values

T1 sequence (Q13131 whole entry): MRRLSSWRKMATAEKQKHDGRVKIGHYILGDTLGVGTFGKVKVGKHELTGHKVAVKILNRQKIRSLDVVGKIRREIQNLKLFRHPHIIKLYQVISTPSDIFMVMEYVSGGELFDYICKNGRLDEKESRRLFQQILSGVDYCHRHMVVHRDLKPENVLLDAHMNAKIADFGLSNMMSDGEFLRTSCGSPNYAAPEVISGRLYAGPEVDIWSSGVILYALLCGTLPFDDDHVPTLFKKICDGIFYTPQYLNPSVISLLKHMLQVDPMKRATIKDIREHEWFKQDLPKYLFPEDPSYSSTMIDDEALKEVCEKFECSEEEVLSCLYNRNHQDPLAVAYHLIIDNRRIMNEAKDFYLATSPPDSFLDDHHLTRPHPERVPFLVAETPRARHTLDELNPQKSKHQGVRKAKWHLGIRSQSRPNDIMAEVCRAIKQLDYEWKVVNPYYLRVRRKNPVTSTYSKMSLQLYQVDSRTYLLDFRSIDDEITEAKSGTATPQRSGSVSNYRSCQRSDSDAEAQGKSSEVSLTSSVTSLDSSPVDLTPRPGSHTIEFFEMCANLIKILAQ
T1 sequence (O43741 whole entry partner): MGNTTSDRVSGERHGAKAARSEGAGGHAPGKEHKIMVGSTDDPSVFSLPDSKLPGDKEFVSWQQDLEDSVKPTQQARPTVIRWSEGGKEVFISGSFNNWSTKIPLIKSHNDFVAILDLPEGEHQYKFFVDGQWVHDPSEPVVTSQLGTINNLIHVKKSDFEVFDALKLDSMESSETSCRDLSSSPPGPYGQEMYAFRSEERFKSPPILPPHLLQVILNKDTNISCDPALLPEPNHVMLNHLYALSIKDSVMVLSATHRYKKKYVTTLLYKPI
T1 sequence (P54619 whole entry partner): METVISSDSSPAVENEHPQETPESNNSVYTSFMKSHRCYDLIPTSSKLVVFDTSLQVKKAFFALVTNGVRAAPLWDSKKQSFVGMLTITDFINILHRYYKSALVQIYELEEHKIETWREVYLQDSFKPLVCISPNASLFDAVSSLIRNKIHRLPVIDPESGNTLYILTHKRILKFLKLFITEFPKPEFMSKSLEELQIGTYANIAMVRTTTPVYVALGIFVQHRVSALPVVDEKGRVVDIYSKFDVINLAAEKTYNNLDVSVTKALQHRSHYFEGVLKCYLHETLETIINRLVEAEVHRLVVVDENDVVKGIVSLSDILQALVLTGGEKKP

Row | Structure (SMILES) | % Activity remaining compared to 100% DMSO controls, individual replicates ([1]; ATP conc 0.5 µM) | Mean Activity (%) remaining compared to 100% DMSO controls ([1]; ATP conc 0.5 µM) | % Activity remaining compared to 100% DMSO controls, individual replicates ([1]; ATP conc 2 µM) | Mean Activity (%) remaining compared to 100% DMSO controls ([1]; ATP conc 2 µM) | % Activity remaining compared to 100% DMSO controls, individual replicates ([1]; ATP conc 20 µM) | Mean Activity (%) remaining compared to 100% DMSO controls ([1]; ATP conc 20 µM) | % Activity remaining compared to 100% DMSO controls, individual replicates ([1]; ATP conc 200 µM) | Mean Activity (%) remaining compared to 100% DMSO controls ([1]; ATP conc 200 µM) | % Activity remaining compared to 100% DMSO controls, individual replicates ([1]; ATP conc 500 µM) | Mean Activity (%) remaining compared to 100% DMSO controls ([1]; ATP conc 500 µM) | IC50 [2, 4] | IC50 [2, 5] | Selectivity Index using the NPI non-cancer cell line [2] | SI (ARPE19) [2] | SI (MCF10A) [2] | SI (NPI) [2] | IC50 [3, 6] | IC50 [3, 7] | IC50 [3, 8] | other results
1 | CC(=O)[O-].CC(=O)[O-].CC(=O)[O-].CC(=O)[O-].CC(=O)[O-].CC(=O)[O-].[Zn+2].[Zn+2].[Zn+2].c1ccc(-c2csc(NCCN(CCNc3nc(-c4ccccn4)cs3)CCNc3nc(-c4ccccn4)cs3)n2)nc1.c1ccc(-c2csc(NCCN(CCNc3nc(-c4ccccn4)cs3)CCNc3nc(-c4ccccn4)cs3)n2)nc1 [[L2Zn3]6+] | 17.76% and 11.76% and 14.76% | 14.76% | 15.06% and 12.57% and 9.46% | 12.36% | 16.58% and 14.33% and 12.68% | 14.53% | 16.91% and 18.22% and 15.98% | 17.04% | 15.73% and 11.81% and 15.83% | 14.46% | 3.23 µM and 4.44 µM and 4.32 µM | 4 µM | 1.95 | 39.31 | 40.41 | 1.95 | 5.77 µM and 8.9 µM and 8.86 µM | 7.78 µM | 7.78 µM | IC50 ([2]; mean of at least 3 independent experiments, listed as [L2Zn3]^6+, read-out: Mean IC50): > 1 µM
2 | [Cu+2].[Cu+2].[Cu+2].c1ccc(-c2csc(NCCN(CCNc3nc(-c4ccccn4)cs3)CCNc3nc(-c4ccccn4)cs3)n2)nc1.c1ccc(-c2csc(NCCN(CCNc3nc(-c4ccccn4)cs3)CCNc3nc(-c4ccccn4)cs3)n2)nc1 [[L2Cu3]6+] | 12.56% and 14.65% and 16.05% | 14.42% | 15.11% and 18.68% and 17.31% | 17.03% | 12.85% and 11.15% and 12.56% | 12.19% | 10.11% and 10.01% and 10.69% | 10.27% | 20.03% and 18.99% and 20.22% | 19.74% | 5.37 µM and 4.48 µM and 5.08 µM | 4.97 µM | 8.67 | 10.59 | 9.71 | 8.67 | 39.3 µM and 45.1 µM and 44.8 µM | 43.1 µM | 43.1 µM | IC50 ([2]; mean of at least 3 independent experiments, listed as [L2Cu3]^6+, read-out: Mean IC50): > 1 µM

From publication PMC8222254, “Self-assembly of an anion receptor with metal-dependent kinase inhibition and potent in vitro anti-cancer properties” (Nature Communications, 2021)
